Measurements taken from article PMC7357040, “Strategy for Designing Selective Lysosomal Acid α-Glucosidase Inhibitors: Binding Orientation and Influence on Selectivity” (Molecules, 2020).

How the values were obtained:
[1] = target: T1, ER α-glucosidase II (Rattus norvegicus, UniProt A0A8I6GFL3); experiment: ER α-glucosidase II inhibition assay, enzyme prepared from rat liver, 4-nitrophenyl-α-D-glucopyranoside substrate; assay type: biochemical; conditions: for IC50: rat liver enzyme, pH 6.8, 37 °C 30 min, read-out: IC50 ER α-Glcase II
T1 construct: ER α-glucosidase II was prepared from the rat liver; from tissue; host or cells: rat liver
T1 sequence (A0A8I6GFL3 33-944): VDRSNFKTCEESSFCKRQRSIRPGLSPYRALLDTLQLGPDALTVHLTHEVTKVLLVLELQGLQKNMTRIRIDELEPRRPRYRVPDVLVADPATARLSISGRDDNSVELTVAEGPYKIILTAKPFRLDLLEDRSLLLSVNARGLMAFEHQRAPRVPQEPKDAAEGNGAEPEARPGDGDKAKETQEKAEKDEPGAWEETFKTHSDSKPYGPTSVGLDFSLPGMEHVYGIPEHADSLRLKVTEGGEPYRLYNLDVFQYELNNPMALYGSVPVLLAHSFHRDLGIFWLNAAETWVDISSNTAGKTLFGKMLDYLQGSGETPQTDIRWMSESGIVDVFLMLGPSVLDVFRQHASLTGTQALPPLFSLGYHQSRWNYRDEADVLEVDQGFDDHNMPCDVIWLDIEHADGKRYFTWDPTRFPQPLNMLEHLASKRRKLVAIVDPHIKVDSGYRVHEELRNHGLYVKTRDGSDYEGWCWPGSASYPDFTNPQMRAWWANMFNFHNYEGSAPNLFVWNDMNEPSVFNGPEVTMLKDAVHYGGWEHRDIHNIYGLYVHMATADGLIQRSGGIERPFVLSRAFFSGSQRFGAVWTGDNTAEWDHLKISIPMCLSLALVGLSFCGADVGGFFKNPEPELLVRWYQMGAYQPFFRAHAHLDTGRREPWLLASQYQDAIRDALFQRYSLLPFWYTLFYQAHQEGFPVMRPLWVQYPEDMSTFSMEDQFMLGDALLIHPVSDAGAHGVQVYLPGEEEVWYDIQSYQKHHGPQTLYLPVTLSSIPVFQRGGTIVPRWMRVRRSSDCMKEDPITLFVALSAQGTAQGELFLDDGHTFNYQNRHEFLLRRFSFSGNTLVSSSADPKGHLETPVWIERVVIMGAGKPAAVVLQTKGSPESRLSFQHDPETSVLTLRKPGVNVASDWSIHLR
Protocol: (§1) The inhibitory activity toward lysosomal acid α-glucosidase (GAA) was measured with Myozyme (Genzyme; Boston, MA, USA) as the enzyme source, and 4-methylumbelliferyl-α-D-glucopyranoside (Sigma-Aldrich Co.; St. Louis, Mo, USA) as substrate. The reaction mixture consisted 100 mM McIlvaine buffer (pH 6.8), 0.25% sodium taurocholate and 0.1% Triton X-100 (Nacalai Tesque Inc.; Kyoto, Japan), and the appropriate amount of enzyme. The reaction mixture was pre-incubated at 0 °C for 45 min, and the reaction was started by the using 4 mM substrate solution, followed by incubation at 37 °C for 30 min. The reaction was stopped by the addition of 1.6 mL of the solution of 400 mM Glycine-NaOH solution (pH 10.6). The released 4-methylumbelliferone was measured (excitation 362 nm, emission 450 nm) with a F-4500 fluorescence spectrophotometer (Hitachi, Tokyo, Japan). ER α-glucosidase II was prepared from the rat liver according to the method of Hino et al.. For ER α-glucosidase II activities, 4-nitrophenyl-α-D-glucopyranoside (Sigma-Aldrich Co.; St. Louis, MO, USA) was used as substrate. The reaction mixture contained phosphate buffer (pH 6.8), 0.25% sodium taurocholate, and the appropriate amount of enzyme. The reaction mixture was pre-incubated at 0 °C for 30 min, and the reaction was started by the using 4 mM substrate solution, followed by incubation at 37 °C for 30 min. The reaction was stopped by adding 0.4 mL of 400 mM Na2CO3. The released p-nitrophenol was measured spectrometrically at 400 nm.

[2] = target: T2, lysosomal acid α-glucosidase (GAA) (Homo sapiens, UniProt P10253); experiment: In vitro thermostability of GAA at 47 °C, remaining enzyme activity; assay type: biochemical; conditions: 10 µM compound, pH 6.8, incubation 60 min
T2 construct: purchased Genzyme
Protocol: GAA was incubated in 100 mM McIlvaine buffer (pH 6.8) containing 0.25% sodium taurocholate and 0.1% Triton X-100 for 0, 20, 40, and 60 min, and the remaining enzyme activity was determined with 4-methylumbelliferl-α-D-glucopyranoside as substrate. The enzyme activity was 83% lost within 60 min under incubation without test samples, while the incubation with α-1-C-heptyl-LAB effectively stabilized GAA. The enzyme activity remained over 94% even under the incubation for 60 min in the presence of 10 µM α-1-C-heptyl-LAB (Figure 8). […] In contrast, 10 µM α-1-C-ethyl-LAB could not sufficiently protect the enzyme activity (50% activity remained at 60 min).
GAA was incubated at 47 °C in 100 mM sodium citrate buffer (pH 6.8) containing 1 mg/mL of bovine serum albumin (BSA) at various incubation times with or without iminosugars. Each value represents the mean ± SEM (n = 3).
The enzyme GAA was incubated at 47 °C in 100 mM McIlvaine buffer (pH 6.8) containing 0.25% sodium taurocholate and 0.1% Triton X-100 for 0, 20, 40, and 60 min. After incubation, the remaining GAA activity was assayed immediately using 4 mM 4-methylumbelliferyl-α-D-glucopyranoside as substrate.

[3] = target: T2, lysosomal acid α-glucosidase (GAA); experiment: Lysosomal acid α-glucosidase (GAA) inhibition assay, Myozyme as enzyme source, 4-methylumbelliferyl-α-D-glucopyranoside substrate; assay type: biochemical; conditions: for IC50: Myozyme, pH 6.8, 37 °C 30 min; for Selectivity Index ER α-Glcase II/GAA: ratio of IC50 ER α-glucosidase II / IC50 GAA
Protocol: as §1

[4] = target: Jack bean α-mannosidase; design: method as in PMID 15771446; conditions: Figure 1; cited from earlier work
[5] = target: lysosomal α-galactosidase A; design: method as in PMID 15771446; conditions: Figure 1; cited from earlier work

CCCCCCC[C@@H]1N[C@@H](CO)[C@H](O)[C@H]1O [α-1-C-Heptyl-LAB, α-1-C-heptyl-1,4-dideoxy-1,4-imino-L-arabinitol]
IC50 [1]: 74 ± 3.7 µM
GAA enzyme activity remained [2]: over 94%
IC50 [3]: 0.44 ± 0.044 µM
Selectivity Index ER α-Glcase II/GAA [3]: 168.2
Selectivity index, fold better relative to the parent LAB ([3]; relative to LAB): 31 fold

OC[C@H]1NC[C@@H](O)[C@@H](O)[C@@H]1O [DMJ, 1,5-dideoxy-1,5-imino-D-mannitol]
IC50 [4]: 774 µM

CC[C@@H]1N[C@@H](CO)[C@H](O)[C@H]1O [α-1-C-Ethyl-LAB]
IC50 [1]: 541 ± 26 µM
Inhibition of ER α-glucosidase II, fold weaker than LAB ([1]; relative to LAB): 193 fold
GAA enzyme activity remained [2]: 50%
IC50 [3]: 11 ± 1.1 µM
Selectivity Index ER α-Glcase II/GAA [3]: 49.2
Inhibition of GAA, fold lower than LAB ([3]; relative to LAB): 21 fold

CCCCCC[C@@H]1N[C@@H](CO)[C@H](O)[C@H]1O [α-1-C-Hexyl-LAB]
IC50 [1]: 100 ± 6.2 µM
IC50 [3]: 0.71 ± 0.029 µM
Selectivity Index ER α-Glcase II/GAA [3]: 140.8

CCCC[C@@H]1N[C@@H](CO)[C@H](O)[C@H]1O [α-1-C-Butyl-LAB]
IC50 [1]: 228 ± 13 µM
IC50 [3]: 1.6 ± 0.04 µM
Selectivity Index ER α-Glcase II/GAA [3]: 142.5

OC[C@H]1NC[C@H](O)[C@@H](O)[C@H]1O [DGJ, 1,5-dideoxy-1,5-imino-D-galactitol]
IC50 [5]: 0.07 µM

OC[C@H]1NC[C@H](O)[C@@H](O)[C@@H]1O [DNJ, 1,5-Dideoxy-1,5-imino-D-glucitol, reference compound]
IC50 [1]: 8 ± 0.55 µM

C[C@@H]1N[C@@H](CO)[C@H](O)[C@H]1O [α-1-C-Methyl-LAB]
IC50 [1]: 26 ± 2 µM
IC50 [3]: 2 ± 0.12 µM
Selectivity Index ER α-Glcase II/GAA [3]: 13.0

CCCCC[C@@H]1N[C@@H](CO)[C@H](O)[C@H]1O [α-1-C-Pentyl-LAB]
IC50 [1]: 180 ± 19 µM
IC50 [3]: 1.1 ± 0.088 µM
Selectivity Index ER α-Glcase II/GAA [3]: 163.6

OC[C@@H]1NC[C@H](O)[C@H]1O [LAB, 1,4-Dideoxy-1,4-imino-L-arabinitol]
IC50 [1]: 2.8 ± 0.22 µM
GAA enzyme activity remained [2]: 89%
Inhibition potency of GAA, times weaker than DNJ ([3]; relative to DNJ): 3.5 times

CCC[C@@H]1N[C@@H](CO)[C@H](O)[C@H]1O [α-1-C-Propyl-LAB]
IC50 [1]: 413 ± 50 µM
IC50 [3]: 7.4 ± 0.31 µM
Selectivity Index ER α-Glcase II/GAA [3]: 55.8
